Data on 4 compounds can be found in patent US4145253A, “Process for producing fortimicin factors” (Abbott Laboratories, priority 1976, dated 1979).

The nature of one data set: LD50 for dd-mouse. The settings on record: in vivo; dd-mouse weighing 20 ± 1 g. The text has this:
Further, Fortimicin D is expected to have a therapeutic effect on various infections (in human beings and in animals) induced by the above-mentioned various bacteria. […] With such antibacterial properties, Fortimicin D is applicable to medicinal purposes.

For data set [1], the system named is Bacillus subtilis No. 10707. Briefly: antibacterial activity of preparations (paper disc method). In kind it is cell-based. The protocol:
After the completion of fermentation, the culture liquor is adjusted to pH 2.5 with concentrated sulfuric acid and is stirred for 30 minutes. Thereafter, about 7 kg of a filter aid, Radiolite No. 600 (product of Showa Kagaku Kogyo Co., Ltd.) is added to the culture liquor and the microbial cells are removed by filtration. The filtrate is adjusted to pH 7.5 by the addition of 6N sodium hydroxide, and then passed through a column packed with about 20 l of a cation exchange resin, Amberlite IRC-50 (ammonium form). The active principles are adsorbed on the resin, and the effluent is discarded. After the resin is washed with water, elution of the active principles is carried out with 0.5N aqueous ammonia. The eluate is subjected to determination of activity by a paper disc method using an agar plate of Bacillus subtilis No. 10707. Fractions showing an activity are combined and concentrated under reduced pressure to about 1 L. The concentrate is then passed through a column packed with 500 ml of an anion exchange resin, Dowex 1 × 2 (OH form) and then about 2 L of water is passed through the column. In this manner, impurities are removed and the active principles are eluted with water. The active fractions are combined and concentrated under reduced pressure to about 100 ml. The concentrate is passed through a column packed with about 50 ml of active carbon powder whereby the active principles are adsorbed. The column is washed with water and the effluent and washings are discarded. Elution is carried out with 0.2N sulfuric acid. The eluate is subjected to determination of activity by a paper disc method using Bacillus subtilis No. 10707. The active fractions are combined and passed through a column of a resin, Dowex 44 (OH form) and elution of the active principles is carried out with water. The active fractions are combined and concentrated to about 50 ml. The concentrate is freeze-dried to obtain a crude powder of Fortimicin complex. The yield of the crude powder is about 35 g and the activity is 580 unit/mg (activity of 1 mg of the pure preparate corresponds to 1,000 units).
About 500 ml of silica gel is suspended in a solvent comprising isopropanol, chloroform, and concentrated aqueous ammonia (4:2:1 by volume) and packed in a glass column as a tight, uniform layer. Thereafter, the column is thoroughly washed with the same solvent. Then 10 g of the crude powder obtained in the above step B is charged over the silica gel to form a uniform, thin layer. After the crude powder is charged, the same solvent is poured gradually into the column from the top and thereafter elution is carried out continuously at a flow rate of about 50 ml/hour. The eluate is recovered in 20 ml fractions and each of the fractions is subjected to determination of activity by the paper disc method using Bacillus subtilis No. 10707. First, Fortimicin B is eluted followed by Fortimicin A. Then, the elution is continued and after Fortimicin C is eluted, Fortimicin D is eluted. The active fractions are subjected to thin layer chromatography and the fractions containing Fortimicin D are combined and concentrated under reduced pressure to sufficiently remove the solvent.
About 500 ml of silica gel, suspended in a solvent comprising isopropanol, chloroform, and concentrated aqueous ammonia (4:2:1 by volume) is packed in a glass column as a tight, uniform layer. Thereafter, the column is thoroughly washed with the same solvent. Then the crude powder obtained above is charged over the silica gel in a uniform thin layer and the same solvent is poured gradually into the column from the top and thereafter elution is carried out continuously at a flow rate of about 50 ml/hour. The eluate is recovered in 20 ml fractions and each of the fractions is subjected to determination of activity by the paper disc method using Bacillus subtilis No. 10707. First, Fortimicin B is eluted followed by Fortimicin KE. […]

For data set [2], the system named is Staphylococcus aureus ATCC 6538P. Briefly: antibacterial spectrum, MIC by agar dilution method. The settings on record: ATCC6538P, pH 8.0, read-out: Minimum Inhibitory Concentration. Type of data set: cell-based. The text has this: (§1) Table 4 illustrates the antibacterial spectra of Fortimicin D and Fortimicin KE against various microorganisms.
(§2) (Minimum Inhibitory Concentration, γ/ml
(§3) measured by agar dilution method at pH 8.0)
In general terms: In agar dilution the substance is mixed into plates at graded concentrations.

The test system of the next data set is Escherichia coli KY 8315. The data set is described as above. In kind it is cell-based.
Text: as §1, §2, §3

The subject of another data set is Escherichia coli ATCC 26. The description is as above. Type of data set: cell-based.
Text: as §1, §2, §3

Data set [3] concerns Pseudomonas aeruginosa BMH No. 1. The description is as above. In kind it is cell-based. The settings on record: BMHNO.1, pH 8.0, read-out: Minimum Inhibitory Concentration.
Text: as §1, §2, §3

A further data set has as its system Escherichia coli KY 8327. The data set is described as above. In kind it is cell-based. The settings on record: for MIC: Escherichia coli.
Text: as §1, §2, §3

Data set [4] concerns Pseudomonas aeruginosa KY 8510. The data set is described as above. Particulars: KY8510, pH 8.0, strain resistant to kanamycin, kanamycin B, tobramycin, gentamicin C1a and ribostamycin, read-out: Minimum Inhibitory Concentration. In kind it is cell-based.
Text: as §1, §2, §3

In data set [5] the test system is Salmonella typhosa ATCC 9992. The data set is described as above. Type of data set: cell-based. The settings on record: Salmonella enterica, pH 8, read-out: Minimum Inhibitory Concentration.
Text: as §1, §2, §3

The subject of data set [6] is Klebsiella pneumoniae ATCC 10031. The data set is described as above. In kind it is cell-based.
Text: as §1, §2, §3

Data set [7] relates to Shigella sonnei ATCC 9290. The data set is described as above. In kind it is cell-based. The settings on record: ATCC9290, pH 8.0, read-out: Minimum Inhibitory Concentration.
Text: as §1, §2, §3

In data set [8] the test system is Bacillus subtilis No. 10707. The description is as above. Type of data set: cell-based. The settings on record: pH 8.0, read-out: Minimum Inhibitory Concentration.
Text: as §1, §2, §3

Data set [9] can be described thus: solubility of the free base. Type of data set: physicochemical. The settings on record: for solubility in organic solvents: chloroform, benzene, ethyl acetate, butyl acetate, ethyl ether, butanol, petroleum ether, n-hexane, etc., ordinary organic solvents; for solubility in ethanol and acetone / solubility in methanol / solubility in water: free base.
Data set [10] deals with Gram-positive and Gram-negative bacteria. Nature of the data set: antibacterial spectrum, statement in words. Type of data set: cell-based.
Text: as §1, §2, §3

The nature of data set [11]: stability in alkaline solution. Type of data set: physicochemical.
[12] abbreviates: Examples 2 and 3, before cellulose column chromatography.
Where [13] appears, read: Examples 2 and 3, free base after cellulose column chromatography.
Where [14] appears, read: Examples 4 and 5, purified preparate, Casamino acid medium.
The mark [15] stands for this setting: Table 5, purified preparate from Micromonospora olivoasterospora MK-70.
The mark [16] stands for this setting: Table 5, purified preparate from Micromonospora olivoasterospora MK-80.
The mark [17] stands for this setting: Table 5, purified preparate from Micromonospora olivoasterospora Mm 744.
Where [18] appears, read: preparate of Example 1, strain CS-26, silica gel chromatography.

Structures are written as SMILES. In brackets after ≈: the same amount, converted by molar mass. Entries after “also recorded” stand apart in the source; their conditions may differ. Where a name gives a salt, the structure may show the parent alone. Read-outs that look alike come from different tables or passages of the source.

What is called LD50 is the dose at which mortality reaches 50%.

In turn, `COC1C(O)C(N)C(OC2OC(CN)CCC2N)C(O)C1N(C)C(=O)CN` (stereo not shown) [Fortimicin D sulfate] came in with an LD50 in “LD50 for dd-mouse” of 159 mg/kg. Further, in [1] (Examples 8 and 9, sulfate), the activity result is given as “about 650 unit/mg”.
`COC1C(O)C(N)C(OC2OC(CN)CCC2N)C(O)C1N(C)C(=O)CN` (stereo not shown) [Fortimicin D]: the MIC came out at 0.02 µg/mL (≈ 0.0511 µM) in data set [2]; 0.13 µg/mL (≈ 0.332 µM) in the data set on Escherichia coli KY 8315 (KY8315, agar dilution method, pH 8.0, read-out: Minimum Inhibitory Concentration); 0.32 µg/mL (≈ 0.817 µM) in the data set on Escherichia coli ATCC 26 (ATCC26, agar dilution method, pH 8.0, read-out: Minimum Inhibitory Concentration); 5 µg/mL (≈ 12.8 µM) in [3]; 0.13 µg/mL (≈ 0.332 µM) in the data set with Escherichia coli KY 8327 (KY8327, agar dilution method, pH 8.0, strain resistant to kanamycin, gentamicin and tobramycin, read-out: Minimum Inhibitory Concentration); 5 µg/mL (≈ 12.8 µM) in data set [4]. The MIC in [5] was 0.08 µg/mL (≈ 0.204 µM); in [6] (ATCC10031, agar dilution method, pH 8.0, read-out: Minimum Inhibitory Concentration), 0.08 µg/mL (≈ 0.204 µM); in data set [7], 0.3 µg/mL (≈ 0.766 µM); in data set [8], 0.02 µg/mL (≈ 0.0511 µM). The “activity against resistant Escherichia coli” value with Escherichia coli KY 8327 (certain strains of Escherichia coli resistant to kanamycin, gentamicin and tobramycin) is “effective against certain strains of Escherichia coli which are resistant to kanamycin, gentamicin and tobramycin”. Also, the “solubility in organic solvents” value in data set [9] is “poorly soluble; also recorded: insoluble”. The “solubility in ethanol and acetone” value in data set [9] is on record as “slightly soluble”. Besides, the solubility in methanol entry in data set [9] is “soluble”. Moreover, the solubility in water result in [9] was “readily soluble”. In addition, the activity entry in [1] (setting [12]) was “about 840 unit/mg”; in data set [1] (setting [13]), 970 unit/mg; in data set [1] (setting [14]), “about 975 unit/mg”; in [1] (setting [15]) it was 985 unit/mg; in [1] (setting [16]), 975 unit/mg; in data set [1] (setting [17]), 990 unit/mg. Also, in data set [1] (setting [18]), the activity entry was “about 980 unit/mg”. In addition, in data set [10], the “antibacterial activity / spectrum” value was “strong antibacterial activity against a broad range of Gram-positive and Gram-negative bacteria”.
`CNC1C(O)C(OC2OC(CN)CCC2N)C(N)C(O)C1OC` (stereo not shown) [Fortimicin KE]: in data set [11], the “stability in an alkaline solution” value is “stable in an alkaline solution”. Further, the MIC in data set [2] was 1.65 µg/mL (≈ 4.93 µM); in the data set with Escherichia coli KY 8315 (KY8315, pH 8, read-out: Minimum Inhibitory Concentration) it was 26.1 µg/mL (≈ 78 µM); in the data set with Escherichia coli ATCC 26 (ATCC26, pH 8, read-out: Minimum Inhibitory Concentration), 26.1 µg/mL (≈ 78 µM); in data set [3], 208 µg/mL (≈ 623 µM); with Escherichia coli KY 8327 (KY8327, pH 8, read-out: Minimum Inhibitory Concentration) it was 26.1 µg/mL (≈ 78 µM); in [5], 13.1 µg/mL (≈ 39.2 µM). In addition, the MIC in data set [6] (ATCC10031, pH 8, read-out: Minimum Inhibitory Concentration) stood at 26.1 µg/mL (≈ 78 µM); in data set [7] it was 26.1 µg/mL (≈ 78 µM); in [8], 104 µg/mL (≈ 312 µM). In data set [9], the “solubility in organic solvents” value is on record as “poorly soluble; also recorded: insoluble”. Also, in data set [9], the “solubility in ethanol and acetone” value is listed as “slightly soluble”. For the same compound, the solubility in methanol result in data set [9] was “soluble”. For the same compound, the solubility in water entry in [9] was “readily soluble”. Also, the activity entry in data set [1] (Example 7, free base obtained from Fortimicin D with barium hydroxide) is recorded as “about 970 unit/mg”; in [1] (setting [12]), “about 860 unit/mg”; in data set [1] (setting [13]), 980 unit/mg; in [1] (setting [14]), “about 985 unit/mg”; in data set [1] (setting [15]), 985 unit/mg; in data set [1] (setting [16]), 980 unit/mg. Further, the activity is 990 unit/mg in [1] (setting [17]) and “about 970 unit/mg” in data set [1] (setting [18]). In addition, the “antibacterial activity / spectrum” value in [10] is reported as “broad antibacterial spectrum”.
`CNC1C(O)C(OC2OC(CN)CCC2N)C(N)C(O)C1OC` (stereo not shown) [sulfate of Fortimicin KE]: the activity entry in [1] (Examples 8 and 9, sulfate) is “about 610 unit/mg”.
